SMILES strings stand for the structures. Read-outs that look alike come from different tables or passages of the source.

Data set [1] relates to several malignant cell lines. As to conditions: irrespective of Ras status; cited from earlier work.
Data set [2] deals with PC3 Prostrate cancer cells. The data set can be described thus: Antiproliferative activity / cell viability (MTS, 72 h). The data set is classed as cell-based, human. The note with it: Homo sapiens.
Description: (§4) The relative number of the live cells was determined using the CellTiter® 96 AQueous One Solution Cell Proliferation Assay (Promega). Determinations were made in duplicates or triplicates.
Data set [3] concerns Human lung fibroblast IMR90 cells. The data set can be described thus: Cell viability on non-malignant cells (MTS, 72 h). The data set is classed as cell-based. The note with it: IMR-90, Table 6, mean (SD), read-out: IC50 (μM) IMR90. The procedure:
(§1) Cell viability was determined from the expression:
(§2) The plot was constrained to ≧0 and ≦100%.
Human lung fibroblast IMR90 cells were purchased from ATCC (Rockville, Md.) and grown in Eagle's Minimal Essential Media (EMEM, Sigma Aldrich, Singapore) at 37° C., 5% CO2. […] Seeding density was maintained at 4000 cells per well.

A further data set can be described thus: physchem. As to conditions: pH 7.4, aqueous buffer, kinetic from dmso stock. As to the method:
The turbid solution was delivered to the filter plate, agitated for a specific time period and then filtered. The concentration of dissolved compound in the filtrate was determined by uv spectroscopy and referred to pre-constructed calibration curves for solubility determination.
(§3) Determination of aqueous solubility was carried out on Multiscreen® Solubility filter plates (Millipore-MSSLBPC10) from Millipore Corporation (MA, USA). The protocol (PC2445EN00, Millipore Corporation) was followed. Briefly, various concentrations of the test compound were prepared in Universal buffer (pH 7.4)/acetonitrile/DMSO. The UV absorbances of these solutions were obtained at a pre-determined wavelength and used to construct a calibration curve for the test compound. Next, a stock solution of the test compound in DMSO was prepared at a known concentration, diluted with Universal buffer (pH 7.4), dispensed into wells in the Multiscreen Solubility filter plate, and agitated for a period of time. The suspension is then filtered, the filtrate collected and diluted with acetonitrile to give the same solvent composition used to prepare the calibration solutions. The absorbance of the diluted filtrate was then read at the predetermined wavelength and the concentration of the filtrate (taken here to be equivalent to the solubility of the test compound) was determined from the calibration curve.
as §3, with “24 hours at room temperature (25 deg C.). […]” for “a period of time.”, “was” for “is then”, “was” for “was then”, “(equivalent” for “(taken here to be equivalent”, “curve. […] LCMS determinations were made on an Agilent 1200 Series HPLC linked to a AB Sciex Instruments 3200 Q TRAP LC/MS/MS. Separations were carried out on a Phenomenex Luna column [3u, C18(2), 100A, 5×4.6 mm]. […] Quantification was based on the ratio of peak areas of the daughter ion and the mother ion (M+H), normalized against the same ratio obtained for the internal standard. The solubility determinations were carried out in triplicates or more from two different stock solutions.” for “curve.”

In data set [4] the test system is Human hepatocellular carcinoma HepG2 cells. The data set can be described thus: Cell viability (MTS, 72 h). Type of data set: cell-based. The note with it: HepG2, Table 6, mean (SD), read-out: IC50 (μM) HepG2. As to the method:
as §1, §2
Human hepatocellular carcinoma HepG2 and human pancreatic cancer MIA PACA II cells were obtained from ATCC (Rockville, Md.). They were grown in DMEM (high glucose, Invitrogen) supplemented with 10% FBS, 50 μg/mL penicillin and 50 μg/mL streptomycin, 37° C., 5% CO2 until they reached 80-90% confluency, after which they were subcultured. Passage numbers were kept within 7-14 passages for both cell types.

Data set [5] has as its system MDA-MB-231 human breast cells. As to conditions: earlier study; read-out: IC50 MDA-MB-231, previous value; cited from earlier work.
Data set [6] deals with T1, Isoprenylcysteine carboxyl methyltransferase (Icmt) (Homo sapiens, UniProt O60725).
T1 construct: made in house; host or cells: Sf9 (Spodoptera frugiperda) insect cells; membrane preparation provided by Prof PJ Casey (Duke University / Duke-NUS)
T1 sequence (O60725 whole entry, species assumed): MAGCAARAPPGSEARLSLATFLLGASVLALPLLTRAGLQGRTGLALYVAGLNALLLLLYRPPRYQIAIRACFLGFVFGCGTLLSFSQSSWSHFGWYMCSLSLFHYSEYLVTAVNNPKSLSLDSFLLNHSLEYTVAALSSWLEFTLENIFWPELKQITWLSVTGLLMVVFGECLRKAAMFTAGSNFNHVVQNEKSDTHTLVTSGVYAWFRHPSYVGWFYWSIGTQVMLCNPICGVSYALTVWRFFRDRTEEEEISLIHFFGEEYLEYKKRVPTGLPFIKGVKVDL
The data set can be described thus: Icmt inhibition, scintillation proximity assay with BFC and [3H]SAM. As to conditions: Table 3, mean of two or more determinations (SD), read-out: IC50 Icmt. Type of data set: biochemical. The procedure: Isoprenylcysteine carboxyl methyltransferase (Icmt) was provided by Prof PJ Casey of Duke University, NC. S-Adenosylmethionine (SAM), magnesium chloride Hexahydrate (MgCl2), tartrazine, 4-(2-hydroxyethyl)-1-piperazineethanesulfonic acid (HEPES), dimethyl sulfoxide (DMSO) and dithiotreitol (DTT) were purchased from Sigma (Mo, USA). [^3H] S-Adenosylmethionine, [^3H] Biotin and Streptavidin PVT SPA Beads were purchased from PerkinElmer (Waltham, Mass.). Assays were performed in black small volume 384 well microtitre plates from PerkinElmer.
Stocks of Icmt membrane protein (30 μg/μL) stored at −80° C. were thawed at 37° C. and placed on ice. The Icmt membrane protein was diluted in assay buffer (70 mM HEPES, 100 mM NaCl, 5 mM Mg Cl2 and 3 mM DTT, pH 7.5) to a 0.03 μg/μL working concentration and added to the wells of a microtitre plate (5 μl/well). To each wells 20 μl of the reaction buffer was added. The reaction was initiated with the addition of 5 μL of substrate solution containing BFC (6 μM), SAM (3 μM) and 30 μCi/mL [^3H] SAM (all of these reagents were stored at −20° C., SAM reagents thawed on ice, BFC thawed at RT). The plate was incubated at 37° C. for 30 minutes. The reaction was stopped with the addition of 15 μL of stop solution containing SAM (150 μM) and Streptavidin SPA beads (20 mg/mL). Following overnight incubation at ambient temperature radioactivity was counted on a Microbeta Trilux™ (Perkin Elmer, Turku, Finland).
Sf9 (Spodoptera frugiperda ovarian) membranes containing recombinant Icmt were provided by Prof PJ Casey (Duke University, NC and Duke-NUS Graduate Medical School). S-Adenosylmethionine (SAM), magnesium chloride hexahydrate, tartrazine, 4-(2-hydroxyethyl)-1-piperazineethanesulfonic acid (HEPES) and dithiotreitol (DTT) were purchased from Sigma (Mo, USA). [^3H] S-Adenosylmethionine, [^3H] biotin and streptavidin PVT SPA Beads were purchased from PerkinElmer (Waltham, Mass.). Biotinylated farnesylcysteine was synthesized as described in an earlier report. Assays were performed in black 384-well microtitre plates from PerkinElmer.
A vial of Icmt membrane protein (30 μg/μL) stored at −80° C. was thawed at 37° C. and placed on ice. The protein was diluted in assay buffer (70 mM HEPES, 100 mM NaCl, 5 mM MgCl2, 3 mM DTT, pH 7.5) to 0.03 μg/μL and aliquots were added to each well (5 μL/well), followed by 20 μL of the assay buffer. The reaction was initiated by adding 5 μL of a solution containing biotinylated BFC (6 μM), SAM (3 μM) and 30 μCi/mL [^3H] SAM. These reagents were stored at −20° C. and thawed on ice (SAM, [^3H] SAM) or at room temperature (BFC). The plate was incubated at 37° C. for 30 minutes after which the reaction was quenched by adding 15 μL of a solution comprising SAM (150 μM) and streptavidin SPA beads (20 mg/mL). After overnight incubation at ambient temperature, radioactivity was counted (Microbeta Trilux™, Perkin Elmer, Turku, Finland). The degree of inhibition was assessed from the radioactivity obtained in presence of test compound compared to that obtained from the control sample […]. Two independent determinations were made for each test compound.

In data set [7] the test system is MDA-MB-231 human breast cells. In words: Antiproliferative activity / cell viability (MTS, 72 h). The note with it: Homo sapiens.
Description: as §4
Human breast cancer MDA-MB231, liver cancer HepG2 and lung fibroblast cells were purchased from ATCC (Rockville, Md.). MDA-MB231 cells and IMR-90 cells were grown in DMEM (Sigma Aldrich, Singapore) and EMEM (Sigma Aldrich, Singapore) respectively at 37° C., 5% CO2. DMEM was supplemented with 10% fetal bovine serum (Invitrogen, heat treated at 65 deg C., 30 min), 50 units/L penicillin-G and 50 μg/mL streptomycin. EMEM was supplemented with 10% fetal bovine serum (heat treated as above), 100 mg/L penicillin-G and 100 μg/mL streptomycin.
Cell viability was assessed using CellTitre 96® Aqueous One Solution (Promega, Madison, Wis.) containing the tetrazolium salt 3-(4,5-dimethylthiazol-2-yl)-5-(3-carboxymethoxyphenyl)-2-(4-sulfophenyl)-2H-tetrazolium (MTS). […] Final concentration of DMSO per well was maintained at 0.5% v/v. […] Cell viability was determined from the expression:
The plot was constrained to ≧0 and ≦100%. At least 3 independent determinations of IC50 were made using two different stock solutions of test compound.

As to `COc1cccc(NCCC2(c3ccccc3)CC(C)(C)OC(C)(C)C2)c1` [3-methoxy-N-[2-(2,2,6,6-tetramethyl-4-phenyltetrahydropyran-4-yl)ethyl]aniline], the GI50 in data set [1] is at least 0.3 µM.

On to `CCCCCCCCn1cc(CN(CC)CC)c2cc(-c3cccc(C)c3)ccc21` [Compound 8-1], for which the IC50 in data set [2] (PC-3M, Table 3, 72 h, mean (SD), read-out: IC50 PC3) is 6.31 µM; in data set [2] (Table 6, from earlier table, read-out: IC50 (μM) PC3), 6.31 µM; in data set [3], 5.26 µM; in data set [4] it was 6.57 µM; in data set [5], 3.6 µM; in data set [6] (listed as 8.1), 2.18 µM. For the same compound, the IC50 was 2.2 µM in data set [6]; 7.9 µM in data set [7] (MDA-MB-231, 72 h, read-out: IC50MDA-MB-231 (μM)); 7.9 µM in data set [7] (MDA-MB-231, read-out: IC50 (μM) MDA MB 231). The solubility at 24 h in “physchem” (25 °C) is below 1 µM. For the same compound, in the data set “physchem”, the solubility at 3 h was below 1 µM.

Values taken from patent publication US9422238B2, “ICMT inhibitors” (National University of Singapore, priority 2012, dated 2016).
